In patent US20250281457A1, “TREATMENT OR PREVENTION OF DENGUE VIRAL INFECTION” (Janssen Pharmaceuticals, Inc., priority 2022, published 2025):
Like-named read-outs stand apart in the source and are kept apart here.

Test: Effect of food on plasma pharmacokinetics after single oral dose of SF2a/b (Example 2)
Format: in vivo, human
Conditions: both sexes, human, plasma, oral; for Tmax: read-out: tmax, Median
Description: The effect of food on the pharmacokinetics (PK) of Compound (a) was assessed in healthy participants after a single oral dose of SF2a/b, described in Example 1, administered at different dose levels in a randomized single dose, 2-period crossover study. The effect of food on the PK of Compound (a) was determined at 3 different dose levels (50 mg, 200 mg, and 800 mg) for a standardized breakfast; at one dose level (800 mg) for a high-fat, high-calorie breakfast; at two dose levels (200 mg and 800 mg) for a low-fat, low-calorie breakfast, as well as for a low-fat, high-calorie breakfast. 124 healthy adult participants (male and female, 18 to 55 years of age) were enrolled in this study. The volunteers were divided in six panels, which were organized as follows: • Panel […]: • Treatment D: A single 800-mg dose (4×200-mg tablets) of Compound (a) SF2b in fasted conditions. • Treatment E: A single 800-mg dose (4×200-mg tablets) of Compound (a) SF2b in fed conditions (standardized breakfast). • Treatments D and E (treatment sequence group 1 [n=8]: DE; treatment sequence group 2 [n=8]: ED). Panel 4, n=14: • Treatment F: A single 200-mg dose (1×200-mg tablet) of Compound (a) SF2b in fasted conditions. • Treatment G: A single 200-mg dose (1×200-mg tablet) of Compound (a) SF2b, in fed conditions (standardized breakfast). • Treatments F and G (treatment sequence group 1 [n=7]: FG; treatment sequence group 2 [n=7]: GF). Panel […]: • Treatment H: A single 50-mg dose (1×50-mg tablet) of Compound (a) SF2a in fasted conditions. • Treatment I: A single 50-mg dose (1×50-mg tablet) of Compound (a) SF2a in fed conditions (standardized breakfast). • Treatments H and I (treatment sequence group 1 [n=7]: HI; treatment sequence group 2 [n=7]: IH). Panel 6 (n=16): • Treatment J: single 800-mg dose (4×200-mg tablets) of Compound (a) administered as SF2b in fasted conditions. • Treatment K: single 800-mg dose (4×200-mg tablets) of Compound (a) administered as SF2b in fed conditions (high-fat, high-calorie breakfast). • Treatments J and K (treatment sequence group 1 [n=8]: JK; treatment sequence group 2 [n=8]: KJ). Panel 7 (n=32): • Treatment L: single 800-mg dose (4×200-mg tablets) of Compound (a) administered as SF2b in fed conditions (low-fat, low-calorie breakfast). • Treatment M: single 800-mg dose (4×200-mg tablets) of Compound (a) administered as SF2b in fed conditions (low-fat, high-calorie breakfast). • Treatment L (n=16) or Treatment M (n=16). Panel 8 (n=32): • Treatment N: single 200-mg dose (1×200-mg tablet) of Compound (a) administered as SF2b in fed conditions (low-fat, low-calorie breakfast). • Treatment O: single 200-mg dose (1×200-mg tablet) of Compound (a) administered as SF2b in fed conditions (low-fat, high-calorie breakfast). • Treatment N (n=16) or Treatment O (n=16). Tablets were administered orally, together with approximately 240 mL of non-carbonated water, in fasted or fed conditions. […] On day 1 of all treatments in each panel, the participants had fasted overnight for at least 10 hours before study drug intake. Intake of water was not allowed from 2 hours before and until 2 hours after study drug intake, except for the water used for study drug intake and breakfast. In case of intake in fed conditions, study drug was administered within 10 minutes after completing a standardized breakfast (Treatments E, G, and I), or a high-fat, high-calorie breakfast (Treatment K), a low-fat, low-calorie breakfast (Treatments L and N), or a low-fat, high-calorie breakfast (Treatments M and O). For treatments E, G, and I a standardized breakfast was served, consisting of (or its equivalent) 4 slices of bread, 2 slices of ham or cheese, butter, jelly, and 1 or 2 cups (up to 355 mL) of decaffeinated coffee or tea with milk and/or sugar, if desired (containing approximately: fat: 21 g, carbohydrates: 67 g, proteins: 19 g; total calories: 533 kcal). For treatment K in a high-fat, high-calorie breakfast was served. […]

COc1cc(NC(C(=O)c2c[nH]c3ccc(OC(F)(F)F)cc23)c2ccc(Cl)cc2OC)cc(S(C)(=O)=O)c1 (stereo not drawn) [Compound (a)]
AUC(0-inf) (200 mg, 200 mg SF2b, fed, standardized breakfast (Tables 5E, 5G), read-out: AUC∞, Geometric LS Means Treatment G): 103 µg·h/mL
Cmax (200 mg, 200 mg SF2b, fed, standardized breakfast (Tables 5E, 5G), read-out: Cmax, Geometric LS Means Treatment G): 961 ng/mL
AUC(0-t) (200 mg, 200 mg SF2b, standardized breakfast, linear mixed effects model (Table 5B), read-out: AUClast, Geometric Mean Treatment G): 102 µg·h/mL
AUC(0-inf) (200 mg, 200 mg SF2b, standardized breakfast, linear mixed effects model (Table 5B), read-out: AUC∞, Geometric Mean Treatment G): 104 µg·h/mL
Cmax (200 mg, 200 mg SF2b, standardized breakfast, linear mixed effects model (Table 5B), read-out: Cmax, Geometric Mean Treatment G): 984 ng/mL
AUC(0-t) (200 mg, Treatment F: single 200 mg (SF2b), fasted, read-out: AUClast, Geo. Mean): 61.1 µg·h/mL
AUC(0-t) (200 mg, Treatment F: single 200 mg (SF2b), fasted, read-out: AUClast, Mean): 64.8 µg·h/mL
AUC(0-t) (200 mg, Treatment F: single 200 mg (SF2b), fasted, read-out: AUClast, Median): 59 µg·h/mL
AUC(0-inf) (200 mg, Treatment F: single 200 mg (SF2b), fasted, read-out: AUC∞, Geo. Mean): 59.6 µg·h/mL
AUC(0-inf) (200 mg, Treatment F: single 200 mg (SF2b), fasted, read-out: AUC∞, Mean): 62 µg·h/mL
AUC(0-inf) (200 mg, Treatment F: single 200 mg (SF2b), fasted, read-out: AUC∞, Median): 58.5 µg·h/mL
Cmax (200 mg, Treatment F: single 200 mg (SF2b), fasted, read-out: Cmax, Geo. Mean): 573 ng/mL
Cmax (200 mg, Treatment F: single 200 mg (SF2b), fasted, read-out: Cmax, Mean): 602 ng/mL
Cmax (200 mg, Treatment F: single 200 mg (SF2b), fasted, read-out: Cmax, Median): 580 ng/mL
half-life (200 mg, Treatment F: single 200 mg (SF2b), fasted, read-out: t1/2, term, Geo. Mean (converted)): 188 h
half-life (200 mg, Treatment F: single 200 mg (SF2b), fasted, read-out: t1/2, term, Mean (converted)): 205 h
half-life (200 mg, Treatment F: single 200 mg (SF2b), fasted, read-out: t1/2, term, Median (converted)): 174 h
Tmax (200 mg, Treatment F: single 200 mg (SF2b), fasted): 7.5 h
AUC(0-t) (200 mg, Treatment G: single 200 mg (SF2b), fed, standardized breakfast, read-out: AUClast, Geo. Mean): 97.2 µg·h/mL
AUC(0-t) (200 mg, Treatment G: single 200 mg (SF2b), fed, standardized breakfast, read-out: AUClast, Mean): 100 µg·h/mL
AUC(0-t) (200 mg, Treatment G: single 200 mg (SF2b), fed, standardized breakfast, read-out: AUClast, Median): 89.5 µg·h/mL
AUC(0-inf) (200 mg, Treatment G: single 200 mg (SF2b), fed, standardized breakfast, read-out: AUC∞, Geo. Mean): 102 µg·h/mL
AUC(0-inf) (200 mg, Treatment G: single 200 mg (SF2b), fed, standardized breakfast, read-out: AUC∞, Mean): 106 µg·h/mL
AUC(0-inf) (200 mg, Treatment G: single 200 mg (SF2b), fed, standardized breakfast, read-out: AUC∞, Median): 95.3 µg·h/mL
Cmax (200 mg, Treatment G: single 200 mg (SF2b), fed, standardized breakfast, read-out: Cmax, Geo. Mean): 961 ng/mL
Cmax (200 mg, Treatment G: single 200 mg (SF2b), fed, standardized breakfast, read-out: Cmax, Mean): 996 ng/mL
Cmax (200 mg, Treatment G: single 200 mg (SF2b), fed, standardized breakfast, read-out: Cmax, Median): 892 ng/mL
half-life (200 mg, Treatment G: single 200 mg (SF2b), fed, standardized breakfast, read-out: t1/2, term, Geo. Mean (converted)): 193 h
half-life (200 mg, Treatment G: single 200 mg (SF2b), fed, standardized breakfast, read-out: t1/2, term, Mean (converted)): 198 h
half-life (200 mg, Treatment G: single 200 mg (SF2b), fed, standardized breakfast, read-out: t1/2, term, Median (converted)): 208 h
Tmax (200 mg, Treatment G: single 200 mg (SF2b), fed, standardized breakfast): 8 h
AUC(0-t) (800 mg, 800 mg SF2b, fasted, linear mixed effects model (Table 5A), read-out: AUClast, Geometric Mean Treatment D): 140 µg·h/mL
AUC(0-inf) (800 mg, 800 mg SF2b, fasted, linear mixed effects model (Table 5A), read-out: AUC∞, Geometric Mean Treatment D): 148 µg·h/mL
Cmax (800 mg, 800 mg SF2b, fasted, linear mixed effects model (Table 5A), read-out: Cmax, Geometric Mean Treatment D): 1220 ng/mL
AUC(0-t) (800 mg, 800 mg SF2b, fasted, read-out: AUClast, Geometric LS Means Treatment J): 107 µg·h/mL
AUC(0-inf) (800 mg, 800 mg SF2b, fasted, read-out: AUC∞, Geometric LS Means Treatment J): 110 µg·h/mL
Cmax (800 mg, 800 mg SF2b, fasted, read-out: Cmax, Geometric LS Means Treatment J): 991 ng/mL
AUC(0-t) (800 mg, 800 mg SF2b, fed, high-fat, high-calorie breakfast, read-out: AUClast, Geometric LS Means Treatment K): 421 µg·h/mL
AUC(0-inf) (800 mg, 800 mg SF2b, fed, high-fat, high-calorie breakfast, read-out: AUC∞, Geometric LS Means Treatment K): 422 µg·h/mL
